Legend:
Settings in all cases: in vivo
[1] = Drug distribution in nude mouse brain xenografted with human 22Rv1 cells at 8.1 MBq,iv measured after 2 hrs; format: ADME, tissue-based, CWR22R
[2] = Drug distribution in nude mouse bone xenografted with human 22Rv1 cells at 8.1 MBq,iv measured after 2 hrs; format: ADME, tissue-based, Bone element, CWR22R
[3] = Drug distribution in nude mouse muscle tissue xenografted with human 22Rv1 cells at 8.1 MBq,iv measured after 2 hrs; format: ADME, tissue-based, CWR22R
[4] = Drug distribution in nude mouse tumor xenografted with human 22Rv1 cells at 8.1 MBq,iv measured after 2 hrs; format: ADME, tissue-based, Neoplasm, CWR22R
[5] = Drug distribution in nude mouse blood xenografted with human 22Rv1 cells at 8.1 MBq,iv measured after 2 hrs; format: ADME, tissue-based, CWR22R
[6] = Drug distribution in nude mouse heart xenografted with human 22Rv1 cells at 8.1 MBq,iv measured after 2 hrs in presence of 2-PMPA; format: ADME, tissue-based, CWR22R
[7] = Drug distribution in nude mouse liver xenografted with human 22Rv1 cells at 8.1 MBq,iv measured after 2 hrs in presence of 2-PMPA; format: ADME, tissue-based, CWR22R
[8] = Drug distribution in nude mouse spleen xenografted with human 22Rv1 cells at 8.1 MBq,iv measured after 2 hrs in presence of 2-PMPA; format: ADME, tissue-based, CWR22R
[9] = Drug distribution in nude mouse lung xenografted with human 22Rv1 cells at 8.1 MBq,iv measured after 2 hrs in presence of 2-PMPA; format: ADME, tissue-based, CWR22R
[10] = Drug distribution in nude mouse kidney xenografted with human 22Rv1 cells at 8.1 MBq,iv measured after 2 hrs in presence of 2-PMPA; format: ADME, tissue-based, CWR22R
[11] = Drug distribution in nude mouse stomach xenografted with human 22Rv1 cells at 8.1 MBq,iv measured after 2 hrs in presence of 2-PMPA; format: ADME, tissue-based, CWR22R
[12] = Drug distribution in nude mouse small intestine xenografted with human 22Rv1 cells at 8.1 MBq,iv measured after 2 hrs in presence of 2-PMPA; format: ADME, tissue-based, CWR22R
[13] = Drug distribution in nude mouse large intestine xenografted with human 22Rv1 cells at 8.1 MBq,iv measured after 2 hrs in presence of 2-PMPA; format: ADME, tissue-based, CWR22R
[14] = Drug distribution in nude mouse gall bladder xenografted with human 22Rv1 cells at 8.1 MBq,iv measured after 2 hrs in presence of 2-PMPA; format: ADME, tissue-based, CWR22R
[15] = Drug distribution in nude mouse brain xenografted with human 22Rv1 cells at 8.1 MBq,iv measured after 2 hrs in presence of 2-PMPA; format: ADME, tissue-based, CWR22R
[16] = Drug distribution in nude mouse bone xenografted with human 22Rv1 cells at 8.1 MBq,iv measured after 2 hrs in presence of 2-PMPA; format: ADME, tissue-based, Bone element, CWR22R
[17] = Drug distribution in nude mouse muscle tissue xenografted with human 22Rv1 cells at 8.1 MBq,iv measured after 2 hrs in presence of 2-PMPA; format: ADME, tissue-based, CWR22R
[18] = Drug distribution in nude mouse tumor xenografted with human 22Rv1 cells at 8.1 MBq,iv measured after 2 hrs in presence of 2-PMPA; format: ADME, tissue-based, Neoplasm, CWR22R
[19] = Drug distribution in nude mouse blood xenografted with human 22Rv1 cells at 8.1 MBq,iv measured after 2 hrs in presence of 2-PMPA; format: ADME, tissue-based, CWR22R
[20] = Drug distribution in nude mouse heart xenografted with human 22Rv1 cells at 8.1 MBq,iv measured after 4 hrs; format: ADME, tissue-based, CWR22R
[21] = Drug distribution in nude mouse liver xenografted with human 22Rv1 cells at 8.1 MBq,iv measured after 4 hrs; format: ADME, tissue-based, CWR22R
[22] = Drug distribution in nude mouse spleen xenografted with human 22Rv1 cells at 8.1 MBq,iv measured after 4 hrs; format: ADME, tissue-based, CWR22R
[23] = Drug distribution in nude mouse lung xenografted with human 22Rv1 cells at 8.1 MBq,iv measured after 4 hrs; format: ADME, tissue-based, CWR22R
[24] = Drug distribution in nude mouse kidney xenografted with human 22Rv1 cells at 8.1 MBq,iv measured after 4 hrs; format: ADME, tissue-based, CWR22R
[25] = Drug distribution in nude mouse stomach xenografted with human 22Rv1 cells at 8.1 MBq,iv measured after 4 hrs; format: ADME, tissue-based, CWR22R
[26] = Drug distribution in nude mouse small intestine xenografted with human 22Rv1 cells at 8.1 MBq,iv measured after 4 hrs; format: ADME, tissue-based, CWR22R
[27] = Drug distribution in nude mouse large intestine xenografted with human 22Rv1 cells at 8.1 MBq,iv measured after 4 hrs; format: ADME, tissue-based, CWR22R
[28] = Drug distribution in nude mouse gall bladder xenografted with human 22Rv1 cells at 8.1 MBq,iv measured after 4 hrs; format: ADME, tissue-based, CWR22R
[29] = Drug distribution in nude mouse brain xenografted with human 22Rv1 cells at 8.1 MBq,iv measured after 4 hrs; format: ADME, tissue-based, CWR22R
[30] = Drug distribution in nude mouse bone xenografted with human 22Rv1 cells at 8.1 MBq,iv measured after 4 hrs; format: ADME, tissue-based, Bone element, CWR22R
[31] = Drug distribution in nude mouse tumor xenografted with human 22Rv1 cells at 8.1 MBq,iv measured after 4 hrs; format: ADME, tissue-based, Neoplasm, CWR22R
[32] = Drug distribution in nude mouse blood xenografted with human 22Rv1 cells at 8.1 MBq,iv measured after 4 hrs; format: ADME, tissue-based, CWR22R

## COc1cc(C(=O)N[C@@H](CCC(=O)O)C(=O)N[C@@H](CCC(=O)O)C(=O)NCc2ccc(C(=O)N[C@@H](Cc3ccc4ccccc4c3)C(=O)NCCCC[C@H](NC(=O)N[C@@H](CCC(=O)O)C(=O)O)C(=O)O)cc2)ccc1OS(=O)(=O)[18F]
[1]
  Drug uptake: 0.1 % ID/g
[2]
  Drug uptake: 3.79 % ID/g
[3]
  Drug uptake: 0.45 % ID/g
[4]
  Drug uptake: 4.54 % ID/g
[5]
  Drug uptake: 2.95 % ID/g
[6]
  Drug uptake: 0.85 % ID/g
[7]
  Drug uptake: 2.4 % ID/g
[8]
  Drug uptake: 0.83 % ID/g
[9]
  Drug uptake: 1.58 % ID/g
[10]
  Drug uptake: 4.33 % ID/g
[11]
  Drug uptake: 0.57 % ID/g
[12]
  Drug uptake: 9.02 % ID/g
[13]
  Drug uptake: 1.1 % ID/g
[14]
  Drug uptake: 4.39 % ID/g
[15]
  Drug uptake: 0.08 % ID/g
[16]
  Drug uptake: 2.49 % ID/g
[17]
  Drug uptake: 0.46 % ID/g
[18]
  Drug uptake: 1.82 % ID/g
[19]
  Drug uptake: 3.86 % ID/g
[20]
  Drug uptake: 0.31 % ID/g
[21]
  Drug uptake: 0.79 % ID/g
[22]
  Drug uptake: 0.97 % ID/g
[23]
  Drug uptake: 0.52 % ID/g
[24]
  Drug uptake: 19.91 % ID/g
[25]
  Drug uptake: 0.44 % ID/g
[26]
  Drug uptake: 0.79 % ID/g
[27]
  Drug uptake: 1.34 % ID/g
[28]
  Drug uptake: 1.39 % ID/g
[29]
  Drug uptake: 0.02 % ID/g
[30]
  Drug uptake: 3.76 % ID/g
[31]
  Drug uptake: 4.47 % ID/g
[32]
  Drug uptake: 0.8 % ID/g
